From patent US20250197641A1, “OPTICAL ABSORBENT” (priority 2023, published 2025)

Experiments:
Format in all cases: physicochemical
[1] = Transmittance of absorption membrane before and after reliability evaluation (Test Example 1)
Procedure: The transmittance spectrum was measured using a spectrophotometer (Manufacturer: Perkinelmer, Product Name: Lambda 750 Spectrophotometer) on a specimen obtained by cutting the measurement object (e.g., an absorption membrane) so that the width and height were 10 mm and 10 mm, respectively. The transmittance spectrum was measured for each wavelength according to the equipment manual. The specimen was placed on a straight line between a measuring beam of the spectrophotometer and a detector and the transmittance spectrum was confirmed by setting the incident angle of the measuring beam to 0°. The incident angle of 0° is a direction substantially parallel to the surface normal direction of the specimen. The average transmittance within a certain wavelength range in the transmittance spectrum is the result of measuring the transmittance at each wavelength while increasing the wavelength by 1 nm starting from the shortest wavelength in the wavelength range, and then calculating the arithmetic average of the measured transmittances. The maximum transmittance is the maximum transmittance among the transmittances measured while increasing the wavelength by 1 nm and the minimum transmittance is the minimum transmittance among the transmittances measured while increasing the wavelength by 1 nm. For example, the average transmittance within the wavelength range of 350 nm to 360 nm is the arithmetic mean of the transmittance measured at the wavelength of 350 nm, 351 nm, 352 nm, 353 nm, 354 nm, 355 nm, 356 nm, 357 nm, 358 nm, 359 nm, and 360 nm. The maximum transmittance within the wavelength range of 350 nm to 360 nm is the highest transmittance measured at wavelengths of 350 nm, 351 nm, 352 nm, 353 nm, 354 nm, 355 nm, 356 nm, 357 nm, 358 nm, 359 nm and 360 nm and the minimum transmittance within the wavelength range of 350 nm to 360 nm is the lowest transmittance among the transmittances measured at wavelengths of 350 nm, 351 nm, 352 nm, 353 nm, 354 nm, 355 nm, 356 nm, 357 nm, 358 nm, 359 nm, and 360 nm.
A coating solution was prepared by mixing silicone resin (Dow Chemical, RSN-0217), absorbent, and solvent (cyclohexanone) as resin components. The mixing ratio of the resin component, absorbent, and solvent was set to be 69.3:0.99:29.7 in weight ratio (resin:absorbent:solvent).
The coating solution was coated on a transparent substrate (a glass substrate manufactured by SCHOTT) and maintained at 140° C. for about 2 hours to form an absorption membrane with a thickness of about 6 μm.
Tables 2 and 3 below summarize the transmittance of the absorption membrane before and after reliability evaluation in the ultraviolet and near-infrared regions. The reliability evaluation is an evaluation of maintaining the absorption membrane at 85° C. and under 85% relative humidity condition for 120 hours. In Table 2, B refers to the result before performing the reliability evaluation and A refers to the result after performing the reliability evaluation. Additionally, in Table 2, λmax means the transmittance at the absorption maximum.
In Tables 2 and 3, Δ is the rate of change (%) of each characteristic before and after the reliability evaluation, calculated as 100×[…]/B, where […], B is the value indicated by B in Table 2. In Table 2, Tmax refers to the highest transmittance within the corresponding wavelength region, Tave refers to the average transmittance within the corresponding wavelength region, and Tmin refers to the minimum transmittance within the corresponding wavelength region.

[2] = Pyrolysis temperature (Td 5%) analysis by TGA; details: 25-800° C., 10° C./min, N2
Procedure: The Td 5% is a value obtained through TGA (Thermogravimetric Analysis) analysis. It is the value (Td 5%) at a weight loss of 5% confirmed under the conditions of a temperature range of 25° C. to 800° C., a temperature increase rate of 10° C./min, and a nitrogen (N2) atmosphere of 60 cm^3/min.
Thermogravimetric Analysis (TGA) of the chemical compound was performed by using Scinco's TGA N-1000 equipment. The analysis was performed by using approximately 3 mg of sample (chemical compound) and the analysis was conducted under conditions of a temperature range of 25° C. to 800° C., a temperature increase rate of 10° C./min, and nitrogen (N2) atmosphere of 60 cm^3/min. The value at […] (Td 5%) was used as the Td decomposition temperature.

[3] = Absorption maximum measurement; details: chloroform, about 10^-5 M
Procedure: The maximum absorption was evaluated by a conventional method. Specifically, the sample was dissolved in chloroform solvent at a concentration of about 10^−5 M and then evaluated using measuring equipment (Agilent, Varian Cary 4000).

[4] = Absorption spectra of absorption membrane before and after high temperature/high humidity evaluation (Test Example 2); details: 85% relative humidity, 120 hours
From the text: FIGS. 4 to 6 are the absorption spectra of the absorption membranes prepared in Test Example 1 using the absorbents of Embodiments 1 to 3, respectively. FIGS. 7 to 9 are the absorption spectrum of the absorption membrane prepared in Test Example using the absorbents of Comparative Examples 1 to 3, respectively. In the FIGS., the spectra indicated before reliability is the result immediately after preparing the absorption membrane, and the spectra indicated after reliability is the result after high temperature/high humidity evaluation was performed on the absorption membrane. The high temperature/high humidity evaluation is an evaluation where the absorption membrane is maintained at a temperature of 85° C. under a relative humidity of 85% for 120 hours. In Tables 4 and 5, Af is the transmittance at the absorption maximum wavelength of the absorption membrane maintained at 85° C. under 85% relative humidity for 120 hours and λf is the absorption maximum wavelength for after case. Ai is the transmittance at the absorption maximum wavelength of the absorption membrane before being maintained at 85° C. under 85% relative humidity for 120 hours and λi is the absorption maximum wavelength for before case. In Tables 4 and 5, ΔA is a value calculated as 100×(Af−Ai)/Ai, and Δλ is a value calculated as 100×(λf−λi)λi.

[5] = Solubility of the absorbent in methylene chloride; details: room temperature (about 25° C.)
Procedure: The solubility of the absorbent was evaluated. Solubility was determined based on the following criteria by evaluating the solubility of the absorbent in the solvent (MC, Methylene Chloride) at room temperature (about 25° C.).

[6] = change before/after 85° C., 85% RH, 120 hours
[7] = silicone resin membrane about 6 μm, before reliability evaluation
[8] = silicone resin membrane, after 85° C., 85% RH, 120 hours
[9] = absorption membrane after 85° C.
[10] = absorption membrane before 85° C.

425~465 nm Tave, Δ [1, 6]: 0.2% | 425~465 nm Tmin, Δ [1, 6]: 1.0% | 466~480 nm Tave, Δ [1, 6]: −0.6% | 466~480 nm Tmin, Δ [1, 6]: −0.7% | 480~560 nm Tave, Δ [1, 6]: −0.3% | λmax Tmax (transmittance at the absorption maximum), Δ [1, 6]: 14.7% | 425~465 nm Tave, B [1, 7]: 88.7% | 425~465 nm Tmin, B [1, 7]: 86.5% | 466~480 nm Tave, B [1, 7]: 90.1% | 466~480 nm Tmin, B [1, 7]: 89.8% | 480~560 nm Tave, B [1, 7]: 90.1% | 425~465 nm Tave, A [1, 8]: 88.9% | 425~465 nm Tmin, A [1, 8]: 87.5% | 466~480 nm Tave, A [1, 8]: 89.5% | 466~480 nm Tmin, A [1, 8]: 89.1% | 480~560 nm Tave, A [1, 8]: 89.8% | Maximum Absorption Wavelength [3]: 761 nm | ΔA = 100×(Af−Ai)/Ai ([4]; 85° C.): 69.0% | Δλ = 100×(λf−λi)λi ([4]; 85° C.): −13% | Af, transmittance at the absorption maximum wavelength [4, 9]: 36.0% | λf, absorption maximum wavelength [4, 9]: 747 nm | Ai, transmittance at the absorption maximum wavelength [4, 10]: 21.3% | λi, absorption maximum wavelength [4, 10]: 748 nm | Solubility [5]: A (When solubility is 1 mass % or more)
SMILES: CCCCN1\C(=C/C=C/C=C/C=C/C2=[N+](CCCC)c3ccccc3C2(C)C)C(C)(C)c2ccccc21 [Comparative Example 1]
Td 5% [2]: 215 °C
